In one series the target is T1, human topoisomerase I (Homo sapiens, UniProt P11387).
T1 sequence (P11387 1-765): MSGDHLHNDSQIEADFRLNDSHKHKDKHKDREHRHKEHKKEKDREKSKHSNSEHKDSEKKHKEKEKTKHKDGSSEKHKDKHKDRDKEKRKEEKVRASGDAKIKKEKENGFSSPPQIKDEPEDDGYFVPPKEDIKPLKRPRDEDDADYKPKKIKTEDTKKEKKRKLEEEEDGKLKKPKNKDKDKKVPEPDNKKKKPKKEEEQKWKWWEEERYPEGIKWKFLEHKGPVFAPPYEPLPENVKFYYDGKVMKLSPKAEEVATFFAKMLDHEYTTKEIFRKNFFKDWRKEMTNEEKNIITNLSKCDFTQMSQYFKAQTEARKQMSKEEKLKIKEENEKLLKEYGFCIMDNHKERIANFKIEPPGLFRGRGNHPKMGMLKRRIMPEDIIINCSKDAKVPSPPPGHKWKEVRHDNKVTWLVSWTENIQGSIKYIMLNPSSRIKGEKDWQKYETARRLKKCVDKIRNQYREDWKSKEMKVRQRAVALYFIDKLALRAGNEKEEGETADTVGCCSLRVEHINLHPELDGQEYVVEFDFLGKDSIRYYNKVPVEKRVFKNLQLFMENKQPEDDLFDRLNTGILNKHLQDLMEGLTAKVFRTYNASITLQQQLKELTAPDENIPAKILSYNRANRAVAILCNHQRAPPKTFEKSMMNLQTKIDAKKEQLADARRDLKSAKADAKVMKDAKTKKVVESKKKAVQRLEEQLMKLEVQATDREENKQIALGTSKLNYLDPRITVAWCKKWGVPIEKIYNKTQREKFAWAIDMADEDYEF
Kind of series: Topoisomerase I DNA relaxation assay (supercoiled plasmid DNA). Format: biochemical. To be noted: supercoiled plasmid DNA, each compound tested at 1 μM, agarose gel with ethidium bromide. How it is done:
Two assays, based on DNA relaxation and DNA cleavage (Bailly, C. DNA relaxation and cleavage assays to study topoisomerase I inhibitors. Methods Enzymol. 2001, 340, 610-623) were used evaluate the effects of the lamellarin analogs on the catalytic activity of human topoisomerase I.
In the first assay, a supercoiled plasmid DNA was relaxed with topoisomerase I in the absence or presence of the test compounds, each tested at 1 μM. DNA relaxation products were then resolved by gel electrophoresis on agarose gels containing ethidium bromide to stain the DNA.

The next series has as its system K-562. Kind of series: SRB colorimetric cell growth inhibition assay, K-562. Format: cell-based. To be noted: K-562. An outline of the steps:
(§1)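 Tested samples remained on human cancer cell cultures throughout the incubation; viable biomass was then stained with SRB and read colorimetrically.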

For another series, the system named is A-549. Kind of series: SRB colorimetric cell growth inhibition assay, A-549. Format: cell-based. As to conditions: A-549. An outline of the steps:
as §1

A further series deals with SK-MEL-28. As to the kind of experiment: SRB colorimetric cell growth inhibition assay, SK-MEL-28. To be noted: MEL-28. Format: cell-based. An outline of the steps: as §1
Another series concerns HT-29. Kind of series: SRB colorimetric cell growth inhibition assay, HT-29. Format: cell-based. To be noted: HT-29. An outline of the steps: as §1
For another series, the system named is LoVo. As to the kind of experiment: SRB colorimetric cell growth inhibition assay, LoVo. To be noted: LOVO. The series is classed as cell-based. An outline of the steps:
as §1

The next series concerns LoVo-Dox. Kind of series: SRB colorimetric cell growth inhibition assay, LoVo-Dox (MDR). The series is classed as cell-based. As to conditions: LOVO-DOX. An outline of the steps: as §1
In a further series the test system is DU-145. As to the kind of experiment: SRB colorimetric cell growth inhibition assay, DU-145. Format: cell-based. To be noted: DU-145. An outline of the steps: as §1
For a further series, the system named is LNCaP. Kind of series: SRB colorimetric cell growth inhibition assay, LNCaP. Format: cell-based. As to conditions: LN-caP. The procedure, abridged: as §1
The test system of a further series is SK-BR-3. As to the kind of experiment: SRB colorimetric cell growth inhibition assay, SK-BR-3. As to conditions: SK-BR-3. The series is classed as cell-based. The procedure, abridged:
as §1

The next series deals with IGROV. As to the kind of experiment: SRB colorimetric cell growth inhibition assay, IGROV. The series is classed as cell-based. As to conditions: IGROV. An outline of the steps:
as §1

For a further series, the system named is IGROV-ET. Kind of series: SRB colorimetric cell growth inhibition assay, IGROV-ET (ET-743 resistant). Format: cell-based. To be noted: IGROV-ET. An outline of the steps: as §1
Another series deals with PANC-1. As to the kind of experiment: SRB colorimetric cell growth inhibition assay, PANC-1. Format: cell-based. As to conditions: PANC-1. The procedure, abridged:
as §1

Another series relates to SKOV-3. Kind of series: SRB colorimetric cell growth inhibition assay, SKOV-3. To be noted: SKOV-3. The series is classed as cell-based. An outline of the steps: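 Growth and viability quantified by sulforhodamine B staining in 96-well microplates. Triplicate wells give mean ± SD; derived endpoints are GI, TGI (cytostatic) and LC (cytotoxic).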
The subject of a further series is H-MEC-1. As to the kind of experiment: SRB colorimetric cell growth inhibition assay, H-MEC-1. As to conditions: H-MEC-1. Format: cell-based. An excerpt: Inhibition of Cell Growth by Colorimetric Assay.
A colorimetric type of assay, using sulforhodamine B (SRB) reaction has been adapted for a quantitative measurement of cell growth and viability (following the technique described by P. A. Skehan, et al., J. Natl. Cancer Inst. 1990, 82, 1107-1112).
This form of assay employs 96 well cell culture microplates of 9 mm diameter (T. Mosmann et al., J. of Immunological Methods 1983, 65, 55-63; G. T. Faircloth et al., J. of Tissue and Culture Methods 1988, 11, 201-205).
Most of the cell lines are obtained from American Type Culture Collection (ATCC) derived from different human cancer types.
The values for mean +/− SD of data from triplicate wells are calculated. Some parameters for cellular responses can be calculated: GI=growth inhibition, TGI=total growth inhibition (cytostatic effect) and LC=cell killing (cytotoxic effect).

Where [1] appears, read: total growth inhibition (cytostatic effect).
The mark [2] stands for this setting: TGI=total growth inhibition (cytostatic effect).

As to `COc1cc(-c2c3c4cc(OC)c(OC(=O)[C@H](NC(=O)OC(C)(C)C)C(C)C)cc4oc(=O)c3n3ccc4cc(OC(=O)[C@H](NC(=O)OC(C)(C)C)C(C)C)c(OC)cc4c23)ccc1OC(=O)[C@H](NC(=O)OC(C)(C)C)C(C)C` [Compound 122], the “stimulation of DNA cleavage by topoisomerase I / inhibition of topoisomerase I (nicked DNA band) in DNA relaxation assay” value at human topoisomerase I is “No effect”.

For `COc1cc(-c2c3n(c4c(=O)oc5cc(OC(=O)[C@@H](NC(=O)OC(C)(C)C)C(C)C)c(OC)cc5c24)CCc2cc(OC(=O)[C@@H](NC(=O)OC(C)(C)C)C(C)C)c(OC)cc2-3)ccc1OC(=O)[C@@H](NC(=O)OC(C)(C)C)C(C)C` [Compound 144], the “stimulation of DNA cleavage by topoisomerase I / inhibition of topoisomerase I (nicked DNA band) in DNA relaxation assay” value at human topoisomerase I is “No effect”.

With `COc1cc(-c2c3n(c4c(=O)oc5cc(OC(=O)c6cc(F)c(F)c(F)c6F)c(OC)cc5c24)CCc2cc(OC(=O)c4cc(F)c(F)c(F)c4F)c(OC)cc2-3)ccc1OC(=O)c1cc(F)c(F)c(F)c1F` [Compound 139], on human topoisomerase I, the “stimulation of DNA cleavage by topoisomerase I / inhibition of topoisomerase I (nicked DNA band) in DNA relaxation assay” value is “inactive”.

As for `COc1cc(-c2c3n(c4c(=O)oc5cc(OC(C)=O)c(OC)cc5c24)CCc2cc(OC(C)=O)c(OC)cc2-3)ccc1OC(C)=O` [Compound 108], the “stimulation of DNA cleavage by topoisomerase I / inhibition of topoisomerase I (nicked DNA band) in DNA relaxation assay” value at human topoisomerase I was “inactive”.

Usually GI50 stands for the concentration that inhibits growth by half. Take `COc1cc(-c2c3n(c4c(=O)oc5cc(OC(C)=O)c(OC)cc5c24)CCc2cc(OC)c(OC(C)=O)cc2-3)ccc1OC(C)=O` [Compound 94]: the GI50 was 0.526 µM with K-562 (GI=growth inhibition, read-out: GI50 K-562); 7.19 µM in the series with A-549 (GI=growth inhibition, read-out: GI50 A-549); 2.45 µM in the series on SK-MEL-28 (GI=growth inhibition, read-out: GI50 MEL-28); 15.5 µM in the series on HT-29 (GI=growth inhibition, read-out: GI50 HT-29); 5.7 µM in the series on LoVo (GI=growth inhibition, read-out: GI50 LOVO); 2.84 µM with LoVo-Dox (GI=growth inhibition, read-out: GI50 LOVO-DOX). The GI50 in the series on DU-145 (GI=growth inhibition, read-out: GI50 DU-145) worked out at 13.1 µM; in the series with LNCaP (GI=growth inhibition, read-out: GI50 LN-caP), 0.673 µM; in the series with SK-BR-3 (GI=growth inhibition, read-out: GI50 SK-BR-3), 3.35 µM; with IGROV (GI=growth inhibition, read-out: GI50 IGROV) it was 1.83 µM; in the series on IGROV-ET (GI=growth inhibition, read-out: GI50 IGROV-ET), 1.59 µM; in the series on PANC-1 (GI=growth inhibition, read-out: GI50 PANC-1) it was 2.12 µM. For the same compound, the GI50 was determined as 8.48 µM with SKOV-3 (GI=growth inhibition, read-out: GI50 SKOV-3) and 15.9 µM in the series with H-MEC-1 (GI=growth inhibition). Besides, the CC50 with K-562 (cell killing (cytotoxic effect), read-out: LC50 K-562) stood at 4.32 µM; in the series on A-549 (cell killing (cytotoxic effect), read-out: LC50 A-549), 15.9 µM; in the series with SK-MEL-28 (LC=cell killing (cytotoxic effect), read-out: LC50 MEL-28), 15.9 µM; with HT-29 (cell killing (cytotoxic effect), read-out: LC50 HT-29), 15.9 µM; with LoVo (cell killing (cytotoxic effect), read-out: LC50 LOVO), 15.9 µM; in the series on LoVo-Dox (cell killing (cytotoxic effect), read-out: LC50 LOVO-DOX), 15.9 µM. Also, the CC50 with DU-145 (LC=cell killing (cytotoxic effect), read-out: LC50 DU-145) is 15.9 µM; in the series with LNCaP (LC=cell killing (cytotoxic effect), read-out: LC50 LN-caP), 12.5 µM; in the series on SK-BR-3 (LC=cell killing (cytotoxic effect), read-out: LC50 SK-BR-3), 15.9 µM; in the series on IGROV (LC=cell killing (cytotoxic effect), read-out: LC50 IGROV), 15.9 µM; in the series on IGROV-ET (LC=cell killing (cytotoxic effect), read-out: LC50 IGROV-ET), 15.9 µM; in the series on PANC-1 (cell killing (cytotoxic effect), read-out: LC50 PANC-1), 15.9 µM. Further, the CC50 was found to be 15.9 µM with SKOV-3 (LC=cell killing (cytotoxic effect), read-out: LC50 SKOV-3) and 15.9 µM with H-MEC-1 (LC=cell killing (cytotoxic effect), read-out: LC50 H-MEC-1). The “TGI K-562” value with K-562 (setting [1]) came out at 1.82E−06 Molar. In the series with A-549 (setting [1]), the “TGI A-549” value is recorded as 1.59E−05 Molar. In addition, the “TGI MEL-28” value with SK-MEL-28 (setting [2]) is 7.31E−06 Molar. Also, in the series with HT-29 (setting [1]), the “TGI HT-29” value amounted to 1.59E−05 Molar. Further, in the series on LoVo (setting [1]), the “TGI LOVO” value is reported as 1.59E−05 Molar. In the series on LoVo-Dox (setting [1]), the “TGI LOVO-DOX” value stood at 8.25E−06 Molar. Also, in the series with DU-145 (setting [2]), the “TGI DU-145” value is recorded as 1.59E−05 Molar. Also, in the series on LNCaP (setting [2]), the “TGI LN-caP” value stood at 2.87E−06 Molar. Also, in the series with SK-BR-3 (setting [2]), the “TGI SK-BR-3” value is reported as 1.24E−05 Molar. Further, the “TGI IGROV” value in the series on IGROV (setting [2]) was 5.90E−06 Molar. Besides, the “TGI IGROV-ET” value in the series on IGROV-ET (setting [2]) is on record as 1.59E−05 Molar. Besides, the “TGI PANC-1” value in the series on PANC-1 (setting [1]) was determined as 1.59E−05 Molar. For the same compound, in the series on SKOV-3 (setting [2]), the “TGI SKOV-3” value was determined as 1.59E−05 Molar. For the same compound, the “TGI H-MEC-1” value in the series on H-MEC-1 (setting [2]) worked out at 1.59E−05 Molar.

For the origin of these results see patent publication US7396837B2, “Antitumoral analogs of lamellarins” (Pharma Mar, S.A.U., priority 2002, dated 2008).
